According to PubChem BioAssay (NCI):
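GI50: concentration for 50% inhibition of growth. TGI: total growth inhibition.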

How the values were obtained:
Assay in all cases: inhibition of tumour cell growth, NCI panel, 384-well format
ACHN renal = test system: ACHN renal
M14 melanoma = test system: M14 melanoma
SF-268 CNS = test system: SF-268 CNS
HL-60(TB) leukemia = test system: HL-60(TB) leukemia
786-0 renal = test system: 786-0 renal
MALME-3M melanoma = test system: MALME-3M melanoma
MDA-MB-468 breast = test system: MDA-MB-468 breast
K-562 leukemia = test system: K-562 leukemia
HOP-62 NSCLC = test system: HOP-62 NSCLC
UACC-62 melanoma = test system: UACC-62 melanoma
A549 NSCLC = test system: A549 NSCLC
OVCAR-5 ovarian = test system: OVCAR-5 ovarian
RXF 393 renal = test system: RXF 393 renal
SF-295 CNS = test system: SF-295 CNS
OVCAR-8 ovarian = test system: OVCAR-8 ovarian
CCRF-CEM leukemia = test system: CCRF-CEM leukemia
LOX IMVI melanoma = test system: LOX IMVI melanoma
NCI-H23 lung = test system: NCI-H23 lung
SN12C renal = test system: SN12C renal
BT-549 breast = test system: BT-549 breast
SF-539 CNS = test system: SF-539 CNS
SK-MEL-28 melanoma = test system: SK-MEL-28 melanoma
HT29 colon = test system: HT29 colon
NCI/ADR-RES ovarian = test system: NCI/ADR-RES ovarian
SW-620 colon = test system: SW-620 colon
DU-145 prostate = test system: DU-145 prostate
RPMI-8226 leukemia = test system: RPMI-8226 leukemia
T-47D breast = test system: T-47D breast
OVCAR-3 ovarian = test system: OVCAR-3 ovarian
HOP-92 NSCLC = test system: HOP-92 NSCLC
HCT-15 colon = test system: HCT-15 colon
CAKI-1 renal = test system: CAKI-1 renal
MCF7 breast = test system: MCF7 breast
HCT-116 colon = test system: HCT-116 colon
SNB-75 CNS = test system: SNB-75 CNS
NCI-H522 lung = test system: NCI-H522 lung
SNB-19 CNS = test system: SNB-19 CNS
MOLT-4 leukemia = test system: MOLT-4 leukemia
MDA-MB-231 breast = test system: MDA-MB-231 breast
SK-OV-3 ovarian = test system: SK-OV-3 ovarian
UO-31 renal = test system: UO-31 renal
U251 glioblastoma = test system: U251 glioblastoma
NCI-H322M lung = test system: NCI-H322M lung
UACC-257 melanoma = test system: UACC-257 melanoma
HCC-2998 colon = test system: HCC-2998 colon
HS 578T breast = test system: HS 578T breast
MDA-MB-435 melanoma = test system: MDA-MB-435 melanoma
NCI-H226 lung = test system: NCI-H226 lung
COLO 205 colon = test system: COLO 205 colon
NCI-H460 NSCLC = test system: NCI-H460 NSCLC
TK-10 renal = test system: TK-10 renal
EKVX NSCLC = test system: EKVX NSCLC
IGROV1 ovarian = test system: IGROV1 ovarian
A498 renal = test system: A498 renal
OVCAR-4 ovarian = test system: OVCAR-4 ovarian
PC-3 prostate = test system: PC-3 prostate
SK-MEL-5 melanoma = test system: SK-MEL-5 melanoma
SK-MEL-2 melanoma = test system: SK-MEL-2 melanoma
KM12 colon = test system: KM12 colon

Compound O=C(O)CCCc1ccc(N(CCCl)CCCl)cc1 has a GI50 (ACHN renal) of 8.31 µM, a TGI (ACHN renal) of 35 µM and a GI50 (M14 melanoma) of 19.5 µM. It also gave a GI50 (SF-268 CNS) of 9.3 µM, a GI50 (HL-60(TB) leukemia) of 1.64 µM and a TGI (HL-60(TB) leukemia) of 3.75 µM. The GI50 ([…]-0 renal) was 24.3 µM, the GI50 (MALME-3M melanoma) was 29.9 µM and the GI50 (MDA-MB-468 breast) was 4.37 µM. It also gave a TGI (MDA-MB-468 breast) of 21.4 µM, a GI50 (K-562 leukemia) of 41.6 µM and a GI50 (HOP-62 NSCLC) of 13.6 µM. It also gave a TGI (HOP-62 NSCLC) of 45.8 µM, a GI50 (UACC-62 melanoma) of 12 µM and a GI50 (A549 NSCLC) of 33.3 µM. It also gave a GI50 (OVCAR-5 ovarian) of 45.7 µM, a GI50 (RXF 393 renal) of 14.7 µM and a TGI (RXF 393 renal) of 29.8 µM. For the same compound, the GI50 (SF-295 CNS) was 18.3 µM, the TGI (SF-295 CNS) was 41.8 µM and the GI50 (OVCAR-8 ovarian) was 14.2 µM. For the same compound, the GI50 (CCRF-CEM leukemia) was 3.29 µM, the TGI (CCRF-CEM leukemia) was 8.55 µM and the GI50 (LOX IMVI melanoma) was 30.4 µM. For the same compound, the GI50 (NCI-H23 lung) was 19.4 µM, the TGI (NCI-H23 lung) was 99.8 µM and the GI50 (SN12C renal) was 10.4 µM. For the same compound, the GI50 (BT-549 breast) was 14.1 µM, the GI50 (SF-539 CNS) was 16.7 µM and the TGI (SF-539 CNS) was 60 µM. The GI50 (SK-MEL-28 melanoma) was 57 µM, the GI50 (HT29 colon) was 51.9 µM and the GI50 (NCI/ADR-RES ovarian) was 19.9 µM. The GI50 (SW-620 colon) was 16.9 µM, the GI50 (DU-145 prostate) was 27.3 µM and the TGI (DU-145 prostate) was 99.4 µM. The GI50 (RPMI-8226 leukemia) was 6.45 µM, the TGI (RPMI-8226 leukemia) was 23.6 µM and the GI50 (T-47D breast) was 36 µM. For the same compound, the GI50 (OVCAR-3 ovarian) was 28.4 µM, the GI50 (HOP-92 NSCLC) was 25.3 µM and the GI50 (HCT-15 colon) was 23.7 µM. The GI50 (CAKI-1 renal) was 8.78 µM, the GI50 (MCF7 breast) was 41 µM and the GI50 (HCT-116 colon) was 28.4 µM. For the same compound, the GI50 (SNB-75 CNS) was 19.8 µM, the GI50 (NCI-H522 lung) was 13.3 µM and the TGI (NCI-H522 lung) was 27.5 µM. The GI50 (SNB-19 CNS) was 35.3 µM, the GI50 (MOLT-4 leukemia) was 1.26 µM and the TGI (MOLT-4 leukemia) was 2.52 µM. For the same compound, the GI50 (MDA-MB-231 breast) was 84.7 µM, the GI50 (SK-OV-3 ovarian) was 41.1 µM and the GI50 (UO-31 renal) was 39.8 µM. The GI50 (U251 glioblastoma) was 11.6 µM.

C[C@@H]1Cc2c([nH]c3ccccc23)[C@@H](c2c(F)cc(/C=C/C(=O)O)cc2F)N1CC(C)(C)F gave a GI50 (ACHN renal) of 17.7 µM, a TGI (ACHN renal) of 35.2 µM and a GI50 (M14 melanoma) of 15.7 µM. The TGI (M14 melanoma) was 29.3 µM, the GI50 (SF-268 CNS) was 16.3 µM and the TGI (SF-268 CNS) was 30.9 µM. For the same compound, the GI50 (NCI-H322M lung) was 17.9 µM, the TGI (NCI-H322M lung) was 38.1 µM and the GI50 (HL-60(TB) leukemia) was 17 µM. The TGI (HL-60(TB) leukemia) was 30.8 µM, the GI50 ([…]-0 renal) was 14.1 µM and the TGI (786-0 renal) was 27.7 µM. The GI50 (UACC-257 melanoma) was 17.9 µM, the TGI (UACC-257 melanoma) was 33.4 µM and the GI50 (MALME-3M melanoma) was 14.5 µM. For the same compound, the TGI (MALME-3M melanoma) was 27.9 µM, the GI50 (HCC-2998 colon) was 15.3 µM and the TGI (HCC-2998 colon) was 28.7 µM. It also gave a GI50 (MDA-MB-468 breast) of 20.4 µM, a TGI (MDA-MB-468 breast) of 40.2 µM and a GI50 (K-562 leukemia) of 15.4 µM. For the same compound, the TGI (K-562 leukemia) was 29.3 µM, the GI50 (HOP-62 NSCLC) was 10.2 µM and the TGI (HOP-62 NSCLC) was 22.1 µM. It also gave a GI50 (UACC-62 melanoma) of 15.7 µM, a TGI (UACC-62 melanoma) of 29.4 µM and a GI50 (A549 NSCLC) of 11.6 µM. It also gave a TGI (A549 NSCLC) of 24.5 µM, a GI50 (OVCAR-5 ovarian) of 19.2 µM and a TGI (OVCAR-5 ovarian) of 34.3 µM. The GI50 (HS 578T breast) was 14 µM, the TGI (HS 578T breast) was 27 µM and the GI50 (MDA-MB-435 melanoma) was 18.4 µM. The TGI (MDA-MB-435 melanoma) was 32.9 µM, the GI50 (RXF 393 renal) was 18.5 µM and the TGI (RXF 393 renal) was 32.6 µM. It also gave a GI50 (SF-295 CNS) of 16.4 µM, a TGI (SF-295 CNS) of 30.5 µM and a GI50 (OVCAR-8 ovarian) of 14.9 µM. For the same compound, the TGI (OVCAR-8 ovarian) was 28.6 µM, the GI50 (CCRF-CEM leukemia) was 13 µM and the TGI (CCRF-CEM leukemia) was 25.8 µM. It also gave a GI50 (LOX IMVI melanoma) of 17.2 µM, a TGI (LOX IMVI melanoma) of 31.2 µM and a GI50 (NCI-H23 lung) of 15.4 µM. For the same compound, the TGI (NCI-H23 lung) was 29 µM, the GI50 (NCI-H226 lung) was 17.4 µM and the TGI (NCI-H226 lung) was 32.6 µM. The GI50 (SN12C renal) was 17.3 µM, the TGI (SN12C renal) was 32.3 µM and the GI50 (BT-549 breast) was 15.6 µM. The TGI (BT-549 breast) was 29.2 µM, the GI50 (COLO 205 colon) was 17.7 µM and the TGI (COLO 205 colon) was 39.3 µM. The GI50 (SF-539 CNS) was 15 µM, the TGI (SF-539 CNS) was 28.4 µM and the GI50 (SK-MEL-28 melanoma) was 17.4 µM. For the same compound, the TGI (SK-MEL-28 melanoma) was 31.4 µM, the GI50 (NCI-H460 NSCLC) was 15.3 µM and the TGI (NCI-H460 NSCLC) was 29 µM. For the same compound, the GI50 (HT29 colon) was 15.2 µM, the TGI (HT29 colon) was 28.8 µM and the GI50 (NCI/ADR-RES ovarian) was 16.8 µM. For the same compound, the TGI (NCI/ADR-RES ovarian) was 32 µM, the GI50 (TK-10 renal) was 17.7 µM and the TGI (TK-10 renal) was 35.2 µM. For the same compound, the GI50 (SW-620 colon) was 16 µM, the TGI (SW-620 colon) was 29.7 µM and the GI50 (DU-145 prostate) was 15.9 µM. The TGI (DU-145 prostate) was 35.5 µM, the GI50 (RPMI-8226 leukemia) was 11.4 µM and the TGI (RPMI-8226 leukemia) was 23.6 µM. It also gave a GI50 (T-47D breast) of 10.7 µM, a TGI (T-47D breast) of 32.5 µM and a GI50 (OVCAR-3 ovarian) of 13.3 µM. It also gave a TGI (OVCAR-3 ovarian) of 26.2 µM, a GI50 (HOP-92 NSCLC) of 14.5 µM and a TGI (HOP-92 NSCLC) of 28 µM. For the same compound, the GI50 (HCT-15 colon) was 14.3 µM, the TGI (HCT-15 colon) was 27.8 µM and the GI50 (CAKI-1 renal) was 17.1 µM. The TGI (CAKI-1 renal) was 32.7 µM, the TGI (MCF7 breast) was 18.9 µM and the GI50 (HCT-116 colon) was 14.7 µM. For the same compound, the TGI (HCT-116 colon) was 28.3 µM, the GI50 (SNB-75 CNS) was 17.5 µM and the TGI (SNB-75 CNS) was 33.1 µM. For the same compound, the GI50 (NCI-H522 lung) was 16.8 µM, the TGI (NCI-H522 lung) was 30.8 µM and the GI50 (EKVX NSCLC) was 15.6 µM. The TGI (EKVX NSCLC) was 31.4 µM, the GI50 (SNB-19 CNS) was 15.5 µM and the TGI (SNB-19 CNS) was 32.2 µM. The GI50 (MOLT-4 leukemia) was 11.8 µM, the TGI (MOLT-4 leukemia) was 24.1 µM and the GI50 (IGROV1 ovarian) was 16.4 µM. It also gave a TGI (IGROV1 ovarian) of 31.4 µM, a GI50 (A498 renal) of 13.7 µM and a TGI (A498 renal) of 32.4 µM. The GI50 (MDA-MB-231 breast) was 17.5 µM, the TGI (MDA-MB-231 breast) was 31.6 µM and the GI50 (SK-OV-3 ovarian) was 19.4 µM. It also gave a TGI (SK-OV-3 ovarian) of 39.2 µM, a GI50 (OVCAR-4 ovarian) of 12.8 µM and a TGI (OVCAR-4 ovarian) of 33.5 µM. The GI50 (PC-3 prostate) was 13.4 µM, the TGI (PC-3 prostate) was 26.6 µM and the GI50 (UO-31 renal) was 13.9 µM. It also gave a TGI (UO-31 renal) of 27.1 µM, a GI50 (SK-MEL-5 melanoma) of 13.9 µM and a TGI (SK-MEL-5 melanoma) of 27.2 µM. For the same compound, the GI50 (SK-MEL-2 melanoma) was 19.7 µM, the TGI (SK-MEL-2 melanoma) was 34.2 µM and the GI50 (U251 glioblastoma) was 11.9 µM. The TGI (U251 glioblastoma) was 24.4 µM, the GI50 (KM12 colon) was 16.5 µM and the TGI (KM12 colon) was 30.5 µM.
